Results published in patent publication US20140094462A1, “SONIC HEDGEHOG MODULATORS” (priority 2009, published 2014).

Columns and labels:
[1] = biological target: T1, ShhN protein (Homo sapiens, UniProt Q15465); assay: Surface Plasmon Resonance (SPR) protein binding assay on immobilized ShhN; conditions: SPR, Biacore T100, ShhN immobilized on CM4 chip, 25° C., compound 0.78 μM-25 μM; read-out: KD
T1 construct: auto-cleavage of full length Shh into an active 20 kD N-terminal fragment (ShhN); purchased R&D Systems
Experimental: Biacore™ T100 (GE Healthcare, Uppsala, Sweden) was used to perform the experiments described herein. Sensor surface preparation and interaction analyses experiments were performed at 25° C.
Control surfaces were prepared similarly without protein derivatization and were utilized as a reference surfaces for compound binding experiments.
Zero concentration blank buffer cycles were included as negative control samples.
Data analysis was carried out using Biacore T100 evaluation software v1.1.1. […] Solvent correction was then applied as described previously.

[2] = test system: C3H10T1/2; assay: Induction of osteogenic differentiation (modulation of osteoblast differentiation); conditions: Mus musculus, C3H 10T1/2, read-out: IC50 (nM) C3H10T1/2
Description: Using assays previously described in Dwyer et al., J. Biol. Chem. 282, (2007), 8959-68 and Nakamura et al., Biochm. […] Res. Comm., 237 (1997) 465-9, select compounds of the invention were screened for their ability to modulate osteoblast differentiation.

T1 sequence (Q15465 24-197 limits assumed, species assumed): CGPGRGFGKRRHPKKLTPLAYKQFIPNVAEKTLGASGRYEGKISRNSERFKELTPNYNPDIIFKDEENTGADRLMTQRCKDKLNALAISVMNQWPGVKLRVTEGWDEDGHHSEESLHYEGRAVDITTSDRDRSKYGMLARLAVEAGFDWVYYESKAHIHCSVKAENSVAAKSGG

Kd [1] [µM]	IC50 [2] [nM]	SMILES
1 to 100	1000 to 100000	O=C(C[C@@H]1C/C=C/CCC(=O)OC[C@@H]2CCCN2C1=O)NCc1ccc(Cl)cc1 [DP, N-(4-chlorobenzyl)-2-((9S,14aS,E)-3,10-dioxo-3,4,5,8,9,10,12,13,14,14a-decahydro-1H-pyrrolo[2,1-c][1,4]oxaazacyclododecin-9-yl)acetamide]
	< 100	CS(=O)(=O)N[C@@H]1C/C=C/CCC(=O)N[C@H](c2ccccc2)COC1=O [Example A, N-((3R,11R,E)-5,12-dioxo-3-phenyl-1-oxa-4-azacyclododec-8-en-11yl)-methane sulfonamide]
< 0.1	< 100	CC(=O)N[C@@H]1C/C=C/CCC(=O)N[C@H](c2ccccc2)COC1=O [Example B, N-((3R,11R,E)-5,12-dioxo-3-phenyl-1-oxa-4-azacyclododec-8-en-11-yl)acetamide]
0.1 to 1	< 100	O=C(C[C@@H]1C/C=C/CCC(=O)N[C@H](c2ccc(F)cc2)COC1=O)NCc1ccc(Cl)cc1 [Example CS, N-(4-chlorobenzyl)-2-((3R,11S,E)-3-(4-fluorophenyl)-5,12-dioxo-1-oxa-4-azacyclododec-8-en-11-yl)acetamide]
< 0.1	100 to 1000	O=C(C[C@@H]1C/C=C/CCC(=O)N[C@H](c2ccc(Cl)cc2)COC1=O)NCc1ccc(Cl)cc1 [Example CX, N-(4-chlorobenzyl)-2-((3R,11S,E)-3-(4-chlorophenyl)-5,12-dioxo-1-oxa-4-azacyclododec-8-en-11-yl)acetamide]
< 0.1	100 to 1000	C[C@H]1CCCC[C@@H](CC(=O)NCc2ccc(Cl)cc2)C(=O)NC[C@@H](c2ccccc2)OC1=O [Example DB, N-(4-chlorobenzyl)-2-((2R,6S,11S)-11-methyl-5,12-dioxo-2-phenyl-1-oxa-4-azacyclododecan-6-yl)acetamide]
0.1 to 1	100 to 1000	C[C@H]1[C@@H](c2ccccc2)OC(=O)CCCCC[C@@H](CC(=O)NCc2ccc(Cl)cc2)C(=O)N1C [Example DC, N-(4-chlorobenzyl)-2-((2R,3S,6S)-3,4-dimethyl-5,12-dioxo-2-phenyl-1-oxa-4-azacyclododecan-6-yl)acetamide]
< 0.1	100 to 1000	O=C(C[C@@H]1C/C=C/CCC(=O)N[C@H](c2ccccc2)COC1=O)NCc1ccc(Cl)nc1 [Example DD, N-((6-chloropyridin-3-yl)methyl)-2-((3R,11S,E)-5,12-dioxo-3-phenyl-1-oxa-4-azacyclododec-8-en-11-yl)acetamide]
0.1 to 1	100 to 1000	CC(C)N[C@H]1C/C=C/C[C@@H](CC(=O)NCc2ccc(Cl)cc2)C(=O)NC[C@@H](c2ccccc2)OC1=O [Example DE, N-(4-chlorobenzyl)-2-((2R,6S,11S,E)-11-(isopropylamino)-5,12-dioxo-2-phenyl-1-oxa-4-azacyclododec-8-en-6-yl)acetamide]
0.1 to 1	100 to 1000	C[C@H]1C/C=C/C[C@@H](CC(=O)NCc2ccc(Cl)cc2)C(=O)NC[C@@H](c2ccccc2)OC1=O [Example DF, N-(4-chlorobenzyl)-2-((2R,6S,11S,E)-11-methyl-5,12-dioxo-2-phenyl-1-oxa-4-azacyclododec-8-en-6-yl)acetamide]
	> 100000	CCOCCNC(=O)C[C@@H]1C/C=C/CCC(=O)O[C@H](c2ccccc2)[C@H](C)N(C)C1=O [Example DR, 2-((2R,3S,6S,E)-3,4-dimethyl-5,12-dioxo-2-phenyl-1-oxa-4-azacyclododec-8-en-6-yl)-N-(2-ethoxyethyl)acetamide]
	> 100000	C[C@@H]1CCCCC(F)(F)C(=O)N[C@H](c2ccccc2)COC1=O [Example L, (3R,11R)-6,6-difluoro-11-methyl-3-phenyl-1-oxa-4-azacyclododecane-5,12-dione]
	100 to 1000	O=C1CC/C=C/CCC(=O)OCC(c2ccccc2)N1 (stereo not shown) [F]
